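A five-concentration, 48-hour dose response in 96-well plates underlies each endpoint, interpolated linearly between surrounding concentrations. GI50 is the concentration that inhibits growth by half.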 Active and inactive are the calls of the source. No stated cut-off is given here; in the data, active = GI50 up to about 1.1 µM and inactive = higher.
Experiments:
Assay in all cases: inhibition of tumour cell growth, NCI panel, 48 h
[1] = test system: SR
[2] = test system: SW-620
[3] = test system: NCI-H460
[4] = test system: HT-29
[5] = test system: CCRF-CEM
[6] = test system: OVCAR-8
[7] = test system: EKVX
[8] = test system: A549
[9] = test system: SF-295
[10] = test system: NCI-H226
[11] = test system: SNB-75
[12] = test system: SK-MEL-5
[13] = test system: A498
[14] = test system: LXFL 529
[15] = test system: TK-10
[16] = test system: T47D
[17] = test system: MDA-N
[18] = test system: MCF7
[19] = test system: MDA-MB-435
[20] = test system: DU-145

Measured: GI50

N=C(N)/N=C(/C=C/c1ccccc1)CC1OC(=O)c2ccccc21 (stereo unspecified)
inactive: [1] > 100 µM | [2] > 100 µM | [3] > 100 µM | [4] > 100 µM | [5] 86.9 µM | [6] > 100 µM | [7] > 100 µM | [8] > 100 µM | [9] > 10 µM | [10] > 100 µM | [11] > 100 µM | [12] > 100 µM | [13] > 100 µM | [14] > 100 µM

CCOC(=O)C1=C(C)N(C2OC(COC(C)=O)C(OC(C)=O)C(OC(C)=O)C2OC(C)=O)C(=O)NC1c1ccccc1 (stereo unspecified)
inactive: [1] > 100 µM | [2] > 100 µM | [3] > 100 µM | [4] > 100 µM | [5] 44.9 µM | [6] > 100 µM | [7] > 100 µM | [8] > 100 µM | [9] > 100 µM | [10] > 100 µM | [11] 55 µM | [12] > 100 µM | [13] > 100 µM | [14] > 100 µM

COc1ccc2c(c1)[n+]([O-])c(C(=O)C/C(=N/OCCCc1ccccc1)C(=O)NC13CC4CC(CC(C4)C1)C3)c(C)[n+]2[O-]
inactive: [15] > 100 µM | [1] > 100 µM | [2] > 100 µM | [3] > 100 µM | [4] > 100 µM | [5] 54.8 µM | [6] > 100 µM | [7] > 100 µM | [8] > 100 µM | [9] > 100 µM | [10] > 100 µM | [11] > 100 µM | [12] > 100 µM | [13] > 100 µM | [14] > 100 µM

COc1ccc(/C=N/N=C(\N)NO)c(OC)c1C
inactive: [1] 28.2 µM | [2] 22.8 µM | [3] 15.6 µM | [4] 12.9 µM | [5] 29.9 µM | [6] 20.2 µM | [7] 4.56 µM | [8] 10.9 µM | [9] 21.1 µM | [10] 15.2 µM | [13] 25.4 µM | [14] 3.62 µM

C/C=C1\CCC2c3[nH]c4ccccc4c3CCN2C1 (stereo unspecified)
inactive: [15] > 100 µM | [1] 55.5 µM | [2] > 100 µM | [3] > 100 µM | [4] 40 µM | [5] > 100 µM | [6] > 100 µM | [7] > 100 µM | [8] > 100 µM | [9] > 100 µM | [10] 31 µM | [11] 61.7 µM | [12] 51.2 µM | [13] > 100 µM | [14] > 100 µM

CSc1nc2c(c(O)c(C)c(=O)n2C2OCC(OC(C)=O)C(OC(C)=O)C2OC(C)=O)c(=O)n1C (stereo unspecified)
inactive: [15] > 100 µM | [1] > 100 µM | [2] > 100 µM | [3] > 100 µM | [4] > 100 µM | [5] > 100 µM | [6] > 100 µM | [8] > 100 µM | [9] > 100 µM | [10] > 100 µM | [11] > 100 µM | [12] > 100 µM | [13] > 100 µM | [14] > 100 µM

CCCCCCCCCCCCCCCc1ccc(OCC(O)CO)cc1 (stereo unspecified)
inactive: [15] > 100 µM | [1] > 100 µM | [2] 22.3 µM | [3] 24.3 µM | [4] 21.7 µM | [5] > 100 µM | [6] 25.7 µM | [7] 31.9 µM | [8] 22.6 µM | [9] 50.1 µM | [10] 25.7 µM | [11] 27 µM | [12] 34 µM | [13] 89.5 µM | [14] 26.7 µM

OCC(O)COc1ccc(Br)cc1 (stereo unspecified)
active: [1] 0.0166 µM
inactive: [15] > 100 µM | [2] > 100 µM | [3] > 10 µM | [4] > 100 µM | [5] > 100 µM | [6] > 100 µM | [7] > 100 µM | [8] 50.7 µM | [9] > 100 µM | [10] > 100 µM | [11] > 100 µM | [12] > 100 µM | [13] > 100 µM | [14] > 100 µM

O=C(O)C1CC2CC(=O)C1C2 (stereo unspecified)
inactive: [15] > 100 µM | [1] > 100 µM | [2] > 100 µM | [3] > 100 µM | [4] > 100 µM | [5] > 100 µM | [6] > 100 µM | [7] > 100 µM | [8] > 100 µM | [9] > 100 µM | [10] > 100 µM | [11] > 100 µM | [12] > 100 µM | [13] > 100 µM | [14] > 100 µM

CCC1CC(C)=CCN1S(=O)(=O)c1ccc(C)cc1 (stereo unspecified)
inactive: [1] 5.66 µM | [2] > 10 µM | [3] 21.1 µM | [4] 20 µM | [5] 4.9 µM | [6] 36.5 µM | [7] 31.8 µM | [8] 21.5 µM | [9] 32.7 µM | [10] 28.2 µM | [11] 13.9 µM | [12] 13.9 µM | [13] 42.6 µM | [14] 12.9 µM

O=C(CC1C(=O)Nc2ccccc2[S+]1[O-])Nc1cccc(Cl)c1 (stereo unspecified)
inactive: [16] 11.2 µM | [17] 18.6 µM | [15] > 58.9 µM | [1] 4.93 µM | [2] > 48 µM | [3] > 44.6 µM | [4] > 35.6 µM | [5] > 35.4 µM | [6] 33 µM | [7] > 47.4 µM | [8] > 100 µM | [9] 41.9 µM | [18] 13.8 µM | [10] 44.3 µM | [19] 27.9 µM | [20] 32.5 µM | [11] 16.4 µM | [12] > 30.9 µM | [13] 13.2 µM | [14] 91.8 µM

CCOc1ccc(NCC2CC/C(=C\c3ccc(Cl)cc3)C2=O)cc1 (stereo unspecified)
inactive: [15] 34.6 µM | [1] 12.1 µM | [2] 17.1 µM | [3] 89.3 µM | [4] > 42.1 µM | [5] 9.29 µM | [6] > 38.3 µM | [7] 38.6 µM | [8] > 100 µM | [9] > 100 µM | [10] > 100 µM | [11] > 44.5 µM | [12] 23 µM | [13] > 49.5 µM | [14] 13.1 µM

CN/C(=N\C#N)N(Cc1ccccc1)Cc1ccccc1
inactive: [15] > 100 µM | [1] > 100 µM | [2] > 100 µM | [3] > 100 µM | [4] > 100 µM | [5] > 100 µM | [6] > 100 µM | [7] > 100 µM | [8] > 100 µM | [9] > 100 µM | [10] > 100 µM | [11] > 100 µM | [12] > 100 µM | [13] > 100 µM | [14] > 100 µM

O=C(Nc1ccc(Cl)cc1)C1C(=O)C(=O)N(c2ccc(Cl)cc2)C1=O (stereo unspecified)
inactive: [15] > 100 µM | [1] > 100 µM | [2] > 100 µM | [3] > 100 µM | [4] 74.8 µM | [5] 73.6 µM | [6] > 100 µM | [7] > 100 µM | [8] > 100 µM | [9] 93.8 µM | [10] > 100 µM | [11] > 100 µM | [12] > 100 µM | [13] 60.7 µM | [14] 59.2 µM

COc1cc2cc3c4c(cc(OC)c(OC)c4c2cc1OC)CCN3C(=O)CCCC(=O)O
inactive: [15] > 100 µM | [1] > 100 µM | [2] > 100 µM | [3] > 100 µM | [4] > 100 µM | [5] > 100 µM | [7] > 100 µM | [8] > 100 µM | [9] > 100 µM | [10] > 100 µM | [12] > 100 µM | [13] > 100 µM | [14] > 100 µM

— ChEMBL document CHEMBL1201862, “PubChem BioAssay data set” (2004)
